These are literature values, as cited in US20080014152A1, “INTRANASAL DELIVERY OF C[…] THE […] AND INTO THE BRAIN” (priority 2006, published 2008).

For data set [1] the following is noted: McIntyre 2005; infusions into the amygdala.
The subject of a further data set is U937 cell. The following applies: Izeboud 1999; U937 cells stimulated with LPS.
The test system of the next data set is NGF mRNA. As to conditions: Follesa 1993; 10 mg/kg intraperitoneal, within 5 hours of administration.
In the next data set the test system is NGF protein. The following applies: Zhu 1998; intraperitoneal.
The subject of the next data set is astrocytes. As to conditions: Abdulla 2005; astrocytes treated with LPS.
For data set [2] the following is noted: Culmsee 1999.
The next data set relates to hippocampal cells. The following applies: Zhu 2001.
The conditions of data set [3]: Sleeper 2002; chronic systemic administration.
Another data set concerns the target T1, β2 adrenergic receptors (Rattus norvegicus, UniProt P10608).
T1 construct: host or cells: rat cerebral cortex (in vivo)
The following applies: Colangelo 1998; stimulation of β2 adrenergic receptors.

The conditions of data set [4]: Culmsee 2004.
The conditions of data set [5]: Rami 2003; after transient global ischemia.
In the next data set the test system is hippocampal cultures. As to conditions: Semkova 1996; in vitro exposure of hippocampal cultures.

T1 sequence (P10608 whole entry): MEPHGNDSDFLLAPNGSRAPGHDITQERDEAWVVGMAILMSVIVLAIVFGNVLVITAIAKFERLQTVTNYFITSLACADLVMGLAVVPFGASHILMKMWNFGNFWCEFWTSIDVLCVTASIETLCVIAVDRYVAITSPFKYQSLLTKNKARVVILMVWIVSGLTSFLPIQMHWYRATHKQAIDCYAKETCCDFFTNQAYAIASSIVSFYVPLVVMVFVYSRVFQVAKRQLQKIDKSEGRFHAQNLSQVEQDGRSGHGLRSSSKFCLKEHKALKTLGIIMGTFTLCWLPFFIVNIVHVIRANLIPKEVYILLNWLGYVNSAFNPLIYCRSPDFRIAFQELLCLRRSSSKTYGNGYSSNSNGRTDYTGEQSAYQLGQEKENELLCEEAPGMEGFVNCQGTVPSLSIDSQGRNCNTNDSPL

For `CC(C)(C)NCC(O)c1cc(Cl)c(N)c(Cl)c1` (stereo not drawn) [clenbuterol], the memory entry in [1] is recorded as “enhance memory”. In addition, in the data set with U937 cell, the IL-6 production entry is listed as “decreasing”, the IL-10 production result is recorded as “increase IL-10 production” and the TNF-α production result is “decreasing”. Also, in the data set with TGF-β (Zhu 2001, 0.5 mg/kg, as early as 3 hours after administration, elevated up to 2 days), the TGF-β immunoreactivity entry is “increase TGF-β immunoreactivity”. The “induction of TGF-β production in neurons” value in the data set with TGF-β (in vivo) is listed as 2-3 ×. For the same compound, the “increase in NGF mRNA in the cerebral cortex” value with NGF mRNA is on record as 2-3 fold. For the same compound, the “elevation of NGF protein levels in the rat hippocampus” value in the data set on NGF protein is reported as 33%. In the data set with astrocytes, the “protection from inflammation in astrocytes” value is “provides protection from inflammation”. Also, the cortical infarct volume result in data set [2] (0.01-0.5 mg/kg, rats, measured 7 days after permanent occlusion of the middle cerebral artery) was “reduced cortical infarct volume”. Moreover, in data set [2] (dosages greater than 1 mg/kg), the blood pressure entry was “decrease in blood pressure”, the cerebroprotective effect result was “no cerebroprotective effect” and the plasma glucose level result was “increase in plasma glucose level”. Besides, the “neuroprotection of hippocampal cells after ischemia” value in the data set with hippocampal cells was “provided neuroprotection”. Besides, the “increase in bFGF mRNA in the cerebral cortex, hippocampus and cerebellum” value in the data set on bFGF mRNA (Follesa 1993, 10 mg/kg intraperitoneal, within 5 hours of administration) is given as 2-3 fold. In the data set with bFGF mRNA (in vivo), the “induction of bFGF production in neurons” value is 2-3 ×. Also, in data set [3], the “side effects, cardiac function” value is “negative alteration of cardiac function”. For the same compound, on β2 adrenergic receptors, the “NGF biosynthesis in the rat cerebral cortex” value is reported as “increases NGF biosynthesis”. Besides, the “neuroprotective capacity in experimental models of stroke” value in [4] is on record as “neuroprotective capacity”. The “apoptosis in the rat hippocampus” value in data set [5] is listed as “attenuates apoptosis”. Also, the “NGF content in the culture medium” value in the data set on hippocampal cultures is “enhanced significantly”.
